Test results as given in PMC6254361, “The properties of Msh2–Msh6 ATP binding mutants suggest a signal amplification mechanism in DNA mismatch repair” (The Journal of Biological Chemistry, 2018).

Biological target: T1, Msh2–Msh6 (Saccharomyces cerevisiae, UniProt P25847+Q03834, P25847:K694R)
T1 sequence (P25847 1-964 K694R): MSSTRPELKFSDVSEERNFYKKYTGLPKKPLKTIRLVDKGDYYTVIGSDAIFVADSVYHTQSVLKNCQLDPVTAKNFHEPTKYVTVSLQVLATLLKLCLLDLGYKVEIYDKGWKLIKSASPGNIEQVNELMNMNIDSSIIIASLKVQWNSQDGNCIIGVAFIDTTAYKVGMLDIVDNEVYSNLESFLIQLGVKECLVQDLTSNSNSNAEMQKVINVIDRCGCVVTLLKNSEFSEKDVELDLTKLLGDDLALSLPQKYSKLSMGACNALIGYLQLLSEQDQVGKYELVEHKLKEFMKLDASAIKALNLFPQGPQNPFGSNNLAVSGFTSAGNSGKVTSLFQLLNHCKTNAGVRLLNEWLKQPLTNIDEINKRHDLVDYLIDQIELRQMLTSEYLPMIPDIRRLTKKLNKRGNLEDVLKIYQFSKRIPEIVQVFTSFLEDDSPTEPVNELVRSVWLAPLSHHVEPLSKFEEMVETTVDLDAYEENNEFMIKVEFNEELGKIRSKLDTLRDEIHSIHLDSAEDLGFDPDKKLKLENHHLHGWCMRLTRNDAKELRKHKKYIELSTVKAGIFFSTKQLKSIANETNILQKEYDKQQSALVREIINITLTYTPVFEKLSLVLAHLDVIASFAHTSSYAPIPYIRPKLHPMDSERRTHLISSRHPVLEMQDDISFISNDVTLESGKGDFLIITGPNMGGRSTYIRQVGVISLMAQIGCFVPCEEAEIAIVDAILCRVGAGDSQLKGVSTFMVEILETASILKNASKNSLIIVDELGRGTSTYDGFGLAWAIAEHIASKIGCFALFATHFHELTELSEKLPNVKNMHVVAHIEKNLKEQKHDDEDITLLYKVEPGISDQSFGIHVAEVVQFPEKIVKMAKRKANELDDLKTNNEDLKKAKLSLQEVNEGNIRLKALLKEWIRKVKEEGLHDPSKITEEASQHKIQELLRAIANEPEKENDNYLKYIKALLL
T1 sequence (Q03834 1-1242): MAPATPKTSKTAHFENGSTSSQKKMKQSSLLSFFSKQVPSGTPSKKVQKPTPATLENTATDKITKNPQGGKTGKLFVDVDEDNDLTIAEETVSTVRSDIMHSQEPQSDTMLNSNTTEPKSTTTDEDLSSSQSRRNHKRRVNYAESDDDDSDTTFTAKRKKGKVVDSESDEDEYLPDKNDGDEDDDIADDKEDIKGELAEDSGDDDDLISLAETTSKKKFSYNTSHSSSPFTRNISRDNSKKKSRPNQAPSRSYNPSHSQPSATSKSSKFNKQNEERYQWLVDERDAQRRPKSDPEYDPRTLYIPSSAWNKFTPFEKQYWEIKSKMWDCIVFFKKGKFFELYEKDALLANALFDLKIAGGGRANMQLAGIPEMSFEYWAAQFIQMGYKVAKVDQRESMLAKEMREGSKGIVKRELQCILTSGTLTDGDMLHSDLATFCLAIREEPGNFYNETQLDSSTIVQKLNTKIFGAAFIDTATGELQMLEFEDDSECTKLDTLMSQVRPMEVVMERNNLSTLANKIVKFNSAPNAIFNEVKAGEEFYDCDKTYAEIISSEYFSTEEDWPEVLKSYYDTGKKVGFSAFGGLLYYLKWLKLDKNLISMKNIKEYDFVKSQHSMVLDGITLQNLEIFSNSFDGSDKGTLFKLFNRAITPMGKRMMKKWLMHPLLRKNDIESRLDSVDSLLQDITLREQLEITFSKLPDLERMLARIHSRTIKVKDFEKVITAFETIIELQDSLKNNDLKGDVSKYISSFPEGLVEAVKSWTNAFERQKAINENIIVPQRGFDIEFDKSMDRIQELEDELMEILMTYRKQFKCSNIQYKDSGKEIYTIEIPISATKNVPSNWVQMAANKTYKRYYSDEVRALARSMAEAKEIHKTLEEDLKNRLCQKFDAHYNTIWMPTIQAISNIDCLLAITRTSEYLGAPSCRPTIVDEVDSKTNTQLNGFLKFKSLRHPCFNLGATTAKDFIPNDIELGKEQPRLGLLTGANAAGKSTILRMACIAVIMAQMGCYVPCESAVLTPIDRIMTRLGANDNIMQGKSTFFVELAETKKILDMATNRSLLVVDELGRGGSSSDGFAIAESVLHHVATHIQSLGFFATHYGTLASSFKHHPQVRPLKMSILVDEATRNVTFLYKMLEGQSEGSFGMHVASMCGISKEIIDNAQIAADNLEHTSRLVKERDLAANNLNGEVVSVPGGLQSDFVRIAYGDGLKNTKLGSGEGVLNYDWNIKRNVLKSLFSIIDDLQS
Assay: UV cross-linking of [γ-32P]ATP, SDS-PAGE, phosphorimaging
Type: binding
Conditions: labelled compound; no Mg2+, EDTA, pH 8, on ice; Msh2 site at 60 μM ATP, Msh6 site at 1 μM ATP

With `Nc1ncnc2c1ncn2[C@@H]1O[C@H](COP(=O)(O)OP(=O)(O)OP(=O)(O)O)[C@@H](O)[C@H]1O` [ATP] the “relative ATP binding” value was “Msh2(K694A)–Msh6 and Msh2(K694R)–Msh6 mutant complexes were defective for ATP binding to both”.
